pEC50, pIC50, pKi: −log10 of the molar value. Activity calls are given as the source filed them. No cut-off for these calls is given here.
Columns and labels:
[1] = biological target: T1, Kappa-type opioid receptor (Homo sapiens, UniProt P41145); assay: biochemical; assay type: cell-based, CHO
Description: Displacement of [3H]U-69593 from kappa opioid receptor expressed in CHO cells

[2] = biological target: T2, Delta-type opioid receptor (Homo sapiens, UniProt P41143); assay: Displacement of [3H]naltrindole from delta opioid receptor expressed in CHO cells; assay type: cell-based
[3] = biological target: T3, Mu-type opioid receptor (Homo sapiens, UniProt P35372); assay: Displacement of [3H]DAMGO from mu opioid receptor expressed in CHO cells; assay type: cell-based
[4] = biological target: T1, Kappa-type opioid receptor; assay: Antagonist activity at human kappa opioid receptor expressed in CHO cell membrane assessed as inhibition of U50,488 induced [35S]GTPgammaS binding; assay type: functional, cell membranes
[5] = biological target: T2, Delta-type opioid receptor; assay: Agonist activity at human delta opioid receptor expressed in CHO cell membrane by [35S]GTP-gamma-S binding assay; assay type: functional, cell membranes
[6] = biological target: T3, Mu-type opioid receptor; assay: Agonist activity at human mu opioid receptor expressed in CHO cell membrane by [35S]GTPgammaS binding assay; assay type: functional, cell membranes
[7] = biological target: T2, Delta-type opioid receptor; assay: Antagonist activity at human delta opioid receptor expressed in CHO cell membrane assessed as inhibition of SNC80 induced [35S]GTPgammaS binding; assay type: functional, cell membranes
[8] = biological target: T3, Mu-type opioid receptor; assay: Antagonist activity at human mu opioid receptor expressed in CHO cell membrane assessed as inhibition of DAMGO induced [35S]GTP-gamma-S binding; assay type: functional, cell membranes
[9] = biological target: T1, Kappa-type opioid receptor; assay: Agonist activity at human kappa opioid receptor expressed in CHO cell membrane by [35S]GTP-gamma-S binding assay; assay type: functional, cell membranes
[10] = biological target: T3, Mu-type opioid receptor; assay: Antagonist activity at human mu opioid receptor expressed in CHO cell membrane assessed as inhibition of DAMGO induced [35S]GTP-gamma-S binding at 10 uM; assay type: functional, cell membranes

T3 sequence (P35372 whole entry): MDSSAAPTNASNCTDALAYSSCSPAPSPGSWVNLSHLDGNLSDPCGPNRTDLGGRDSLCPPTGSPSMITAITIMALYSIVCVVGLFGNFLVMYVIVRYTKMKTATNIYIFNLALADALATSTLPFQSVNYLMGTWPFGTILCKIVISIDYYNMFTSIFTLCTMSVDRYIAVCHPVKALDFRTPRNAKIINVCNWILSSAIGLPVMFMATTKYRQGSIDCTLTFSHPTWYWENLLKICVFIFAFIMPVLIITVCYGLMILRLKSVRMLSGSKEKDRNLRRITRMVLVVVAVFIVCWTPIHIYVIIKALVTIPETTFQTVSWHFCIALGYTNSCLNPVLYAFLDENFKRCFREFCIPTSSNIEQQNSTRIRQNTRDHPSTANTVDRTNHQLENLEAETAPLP
T2 sequence (P41143 whole entry): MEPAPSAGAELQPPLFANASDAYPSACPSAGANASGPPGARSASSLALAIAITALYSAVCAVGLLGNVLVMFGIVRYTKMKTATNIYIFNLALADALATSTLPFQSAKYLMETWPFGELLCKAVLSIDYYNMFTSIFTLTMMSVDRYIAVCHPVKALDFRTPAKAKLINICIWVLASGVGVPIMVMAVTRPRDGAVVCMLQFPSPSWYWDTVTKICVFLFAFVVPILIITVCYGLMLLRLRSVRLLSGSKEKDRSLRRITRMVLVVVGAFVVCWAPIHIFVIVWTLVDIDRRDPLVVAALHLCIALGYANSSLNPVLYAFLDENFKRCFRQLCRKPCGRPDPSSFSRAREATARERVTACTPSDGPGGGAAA
T1 sequence (P41145 whole entry): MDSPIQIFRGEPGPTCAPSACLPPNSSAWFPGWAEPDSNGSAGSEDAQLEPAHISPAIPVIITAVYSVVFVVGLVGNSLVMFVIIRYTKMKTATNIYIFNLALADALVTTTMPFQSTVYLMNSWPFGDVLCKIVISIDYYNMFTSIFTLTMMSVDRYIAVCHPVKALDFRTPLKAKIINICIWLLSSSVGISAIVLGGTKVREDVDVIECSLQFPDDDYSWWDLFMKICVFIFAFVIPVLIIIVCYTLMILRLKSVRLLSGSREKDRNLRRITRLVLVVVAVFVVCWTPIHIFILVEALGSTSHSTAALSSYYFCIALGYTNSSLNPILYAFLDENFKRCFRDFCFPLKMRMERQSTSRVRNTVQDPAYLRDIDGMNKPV

SMILES | pKi [1] | pKi [2] | pKi [3] | Activity [4] | pEC50 [5] | Emax [5] | pEC50 [6] | Emax [6] | Activity [7] | pIC50 [8] | Imax [8] | pEC50 [9] | Emax [9] | Activity [8] | Imax [10]
C[C@H]1C2Cc3ccc(C(=O)NCCc4ccc(-c5ccc(Cl)c(Cl)c5)cc4)cc3[C@@]1(C)CCN2CC1CC1 | 8.96 | 8.60 | 9.01 | – | – | – | – | – | – | – | – | – | – | – | –
COc1ccc(-c2ccc(CCNC(=O)c3ccc4c(c3)[C@@]3(C)CCN(CC5CC5)C(C4)[C@@H]3C)cc2)cc1 | – | – | – | inactive | 9.17 | 70% | 7.96 | 27% | inactive | 7.62 | 82% | 8.96 | 98% | – | –
C[C@H]1C2Cc3ccc(C(=O)NCCc4cccc5ccccc45)cc3[C@@]1(C)CCN2CC1CC1 | 8.62 | 7.62 | 8.38 | – | – | – | – | – | – | – | – | – | – | – | –
C[C@H]1C2Cc3ccc(C(=O)NCCc4cccc(Br)c4)cc3[C@@]1(C)CCN2CC1CC1 | 10.20 | 8.46 | 9.46 | inactive | 7.85 | 85% | 8.25 | 24% | inactive | 6.64 | 85% | 8.34 | 110% | – | –
C[C@H]1C2Cc3ccc(C(=O)NCc4cccc5ccccc45)cc3[C@@]1(C)CCN2CC1CC1 | 7.74 | 7.28 | 8.60 | – | – | – | – | – | – | – | – | – | – | – | –
C[C@H]1C2Cc3ccc(C(=O)NCCCc4ccc5ccccc5c4)cc3[C@@]1(C)CCN2CC1CC1 | 9.74 | 7.74 | 8.72 | inactive | – | – | 7.62 | 31% | – | 6.49 | 78% | 8.20 | 98% | – | –
C[C@H]1C2Cc3ccc(C(=O)NCCCc4cccc5ccccc45)cc3[C@@]1(C)CCN2CC1CC1 | 8.72 | 7.74 | 8.62 | – | – | – | – | – | – | – | – | – | – | – | –
C[C@H]1C2Cc3ccc(C(=O)NCCc4ccc(-c5ccc(Cl)cc5)cc4)cc3[C@@]1(C)CCN2CC1CC1 | – | – | – | inactive | 8.70 | 45% | 8.60 | 31% | inactive | – | – | 8.19 | 96% | inactive | 71%
C[C@H]1C2Cc3ccc(C(=O)NCCc4ccc5ccccc5c4)cc3[C@@]1(C)CCN2CC1CC1 | 9.70 | 9.05 | 9.74 | – | – | – | – | – | – | – | – | – | – | – | –
C[C@H]1C2Cc3ccc(C(=O)NCCc4ccccc4Br)cc3[C@@]1(C)CCN2CC1CC1 | 7.72 | 6.82 | 8.40 | – | – | – | – | – | – | – | – | – | – | – | –
C[C@H]1C2Cc3ccc(C(=O)NCc4ccc5ccccc5c4)cc3[C@@]1(C)CCN2CC1CC1 | 7.72 | 7.51 | 8.89 | – | – | – | – | – | – | – | – | – | – | – | –
C[C@H]1C2Cc3ccc(C(=O)NCCc4cccc(-c5ccccc5)c4)cc3[C@@]1(C)CCN2CC1CC1 | – | 8.23 | 9.02 | inactive | 7.74 | 43% | 8.17 | 41% | inactive | – | – | 7.92 | 95% | inactive | 72%
C[C@H]1[C@H]2Cc3ccc(O)cc3[C@@]1(C)CCN2CC1CC1 | 10.15 | 8.70 | – | – | – | – | – | – | – | – | – | – | – | – | –
C[C@H]1C2Cc3ccc(C(=O)NCCc4ccccc4-c4ccccc4)cc3[C@@]1(C)CCN2CC1CC1 | 8.62 | 7.68 | 8.17 | – | – | – | 7.92 | 36% | – | – | – | 7.38 | 97% | – | 73%
C[C@H]1C2Cc3ccc(C(=O)NCCc4ccc(Br)cc4)cc3[C@@]1(C)CCN2CC1CC1 | 9.42 | 8.60 | 8.62 | inactive | 7.70 | 120% | 7.80 | 73% | inactive | – | – | 7.70 | 110% | inactive | –
